The values below are quoted from earlier work in patent US20120251478A1, “Method for treatment of a glomerular disease comprising administration of anion exchange resin” (priority 2006, published 2012).

This series has as its system apparent albuminuria. The following applies: reports, nonpatent reference 2.

Turning to `COc1ccc(Cl)cc1C(=O)NCCc1ccc(S(=O)(=O)NC(=O)NC2CCCCC2)cc1` [glibenclamide], the apparent albuminuria entry is “not ameliorated”.
